Results as given in PubChem BioAssay (NCI).
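Values below derive from 48-hour exposures of cells grown in 96-well plates, with endpoints linearly interpolated between the two concentrations bracketing the appropriate inhibition level. At the TGI there is no net growth.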

Experiments:
Assay in all cases: NCI tumour cell line growth inhibition, 48 h
DU-145 prostate = test system: DU-145 prostate
UACC-62 melanoma = test system: UACC-62 melanoma
SK-MEL-2 melanoma = test system: SK-MEL-2 melanoma
HS 578T breast = test system: HS 578T breast
NCI-H522 lung = test system: NCI-H522 lung
LOX IMVI melanoma = test system: LOX IMVI melanoma
BT-549 breast = test system: BT-549 breast
U251 CNS = test system: U251 CNS
SNB-19 CNS = test system: SNB-19 CNS
SK-MEL-5 melanoma = test system: SK-MEL-5 melanoma
SK-OV-3 ovarian = test system: SK-OV-3 ovarian
HL-60(TB) leukemia = test system: HL-60(TB) leukemia
COLO 205 colon = test system: COLO 205 colon
CAKI-1 renal = test system: CAKI-1 renal
HOP-62 NSCLC = test system: HOP-62 NSCLC
M14 melanoma = test system: M14 melanoma
PC-3 prostate = test system: PC-3 prostate
NCI-H226 lung = test system: NCI-H226 lung
A549 NSCLC = test system: A549 NSCLC
OVCAR-8 ovarian = test system: OVCAR-8 ovarian
TK-10 renal = test system: TK-10 renal
SF-268 CNS = test system: SF-268 CNS
RXF 393 renal = test system: RXF 393 renal
MDA-N = test system: MDA-N
NCI-H460 lung = test system: NCI-H460 lung
EKVX NSCLC = test system: EKVX NSCLC
T-47D breast = test system: T-47D breast
SF-295 CNS = test system: SF-295 CNS
MDA-MB-435 = test system: MDA-MB-435
OVCAR-4 ovarian = test system: OVCAR-4 ovarian
786-0 renal = test system: 786-0 renal
HT29 colon = test system: HT29 colon
HCT-116 colon = test system: HCT-116 colon
SK-MEL-28 melanoma = test system: SK-MEL-28 melanoma
NCI-H23 lung = test system: NCI-H23 lung
UACC-257 melanoma = test system: UACC-257 melanoma
CCRF-CEM leukemia = test system: CCRF-CEM leukemia
OVCAR-3 ovarian = test system: OVCAR-3 ovarian
MALME-3M melanoma = test system: MALME-3M melanoma
NCI/ADR-RES ovarian = test system: NCI/ADR-RES ovarian
OVCAR-5 ovarian = test system: OVCAR-5 ovarian
MOLT-4 leukemia = test system: MOLT-4 leukemia
HCT-15 colon = test system: HCT-15 colon
KM12 colon = test system: KM12 colon
ACHN renal = test system: ACHN renal
UO-31 renal = test system: UO-31 renal
SW-620 colon = test system: SW-620 colon
SNB-75 CNS = test system: SNB-75 CNS
IGROV1 ovarian = test system: IGROV1 ovarian
MDA-MB-231 breast = test system: MDA-MB-231 breast
MCF7 breast = test system: MCF7 breast
SF-539 CNS = test system: SF-539 CNS
A498 renal = test system: A498 renal
SN12C renal = test system: SN12C renal
HCC-2998 colon = test system: HCC-2998 colon
HOP-92 NSCLC = test system: HOP-92 NSCLC
RPMI-8226 leukemia = test system: RPMI-8226 leukemia
K-562 leukemia = test system: K-562 leukemia

Structure (SMILES): CN(CCCNC(=O)c1[nH]nc2c1ccc1ccccc12)CCCNC(=O)c1[nH]nc2c1ccc1ccccc12
- TGI (DU-145 prostate): 31.8 µM
- TGI (UACC-62 melanoma): 21.6 µM
- TGI (SK-MEL-2 melanoma): 23.6 µM
- TGI (HS 578T breast): 33.5 µM
- TGI (NCI-H522 lung): 30.8 µM
- TGI (LOX IMVI melanoma): 25.9 µM
- TGI (BT-549 breast): 29.4 µM
- TGI (U251 CNS): 28.4 µM
- TGI (SNB-19 CNS): 37.6 µM
- TGI (SK-MEL-5 melanoma): 17 µM
- TGI (SK-OV-3 ovarian): 34.2 µM
- TGI (HL-60(TB) leukemia): 10.4 µM
- TGI (COLO 205 colon): 10.9 µM
- TGI (CAKI-1 renal): 33.6 µM
- TGI (HOP-62 NSCLC): 34.6 µM
- TGI (M14 melanoma): 20.1 µM
- TGI (PC-3 prostate): 27.9 µM
- TGI (NCI-H226 lung): 30.7 µM
- TGI (A549 NSCLC): 37.6 µM
- TGI (OVCAR-8 ovarian): 30.9 µM
- TGI (TK-10 renal): 31.8 µM
- TGI (SF-268 CNS): 28.1 µM
- TGI (RXF 393 renal): 30.5 µM
- TGI (MDA-N): 4.52 µM
- TGI (NCI-H460 lung): 38 µM
- TGI (EKVX NSCLC): 38.8 µM
- TGI (T-47D breast): 36.1 µM
- TGI (SF-295 CNS): 32.5 µM
- TGI (MDA-MB-435): 7.71 µM
- TGI (OVCAR-4 ovarian): 37.4 µM
- TGI (786-0 renal): 22.9 µM
- TGI (HT29 colon): 34.6 µM
- TGI (HCT-116 colon): 25.2 µM
- TGI (SK-MEL-28 melanoma): 4.54 µM
- TGI (NCI-H23 lung): 33 µM
- TGI (UACC-257 melanoma): 16.9 µM
- TGI (CCRF-CEM leukemia): 29.4 µM
- TGI (OVCAR-3 ovarian): 29 µM
- TGI (MALME-3M melanoma): 22.4 µM
- TGI (NCI/ADR-RES ovarian): > 100 µM
- TGI (OVCAR-5 ovarian): 37.2 µM
- TGI (MOLT-4 leukemia): 26.2 µM
- TGI (HCT-15 colon): 31.2 µM
- TGI (KM12 colon): 39.7 µM
- TGI (ACHN renal): 31.4 µM
- TGI (UO-31 renal): 31.4 µM
- TGI (SW-620 colon): 35.2 µM
- TGI (SNB-75 CNS): 31.3 µM
- TGI (IGROV1 ovarian): 30.9 µM
- TGI (MDA-MB-231 breast): 23.4 µM
- TGI (MCF7 breast): 28.7 µM
- TGI (SF-539 CNS): 24 µM
- TGI (A498 renal): 31.9 µM
- TGI (SN12C renal): 30.1 µM
- TGI (HCC-2998 colon): 4.13 µM
- TGI (HOP-92 NSCLC): 28.3 µM

Structure (SMILES): CC(=O)OC1CC[C@@]2(C)C(=CC[C@@H]3[C@@H]2CC[C@]2(C)Nc4c(cnn4-c4ccc(F)cc4)C[C@@H]32)C1 (stereo partly drawn)
- TGI (DU-145 prostate): > 100 µM
- TGI (UACC-62 melanoma): > 71.1 µM
- TGI (SK-MEL-2 melanoma): > 73.6 µM
- TGI (HS 578T breast): > 100 µM
- TGI (NCI-H522 lung): > 100 µM
- TGI (LOX IMVI melanoma): > 58.6 µM
- TGI (BT-549 breast): > 100 µM
- TGI (U251 CNS): 47.3 µM
- TGI (SNB-19 CNS): > 100 µM
- TGI (SK-MEL-5 melanoma): > 93.9 µM
- TGI (SK-OV-3 ovarian): > 100 µM
- TGI (HL-60(TB) leukemia): > 26 µM
- TGI (RPMI-8226 leukemia): 28.3 µM
- TGI (COLO 205 colon): > 78.7 µM
- TGI (CAKI-1 renal): 42.8 µM
- TGI (HOP-62 NSCLC): 17.8 µM
- TGI (M14 melanoma): > 100 µM
- TGI (PC-3 prostate): > 100 µM
- TGI (NCI-H226 lung): > 100 µM
- TGI (A549 NSCLC): > 100 µM
- TGI (OVCAR-8 ovarian): > 100 µM
- TGI (TK-10 renal): > 100 µM
- TGI (SF-268 CNS): > 100 µM
- TGI (RXF 393 renal): 11 µM
- TGI (MDA-N): > 100 µM
- TGI (NCI-H460 lung): > 100 µM
- TGI (EKVX NSCLC): > 100 µM
- TGI (T-47D breast): > 100 µM
- TGI (SF-295 CNS): 36.4 µM
- TGI (MDA-MB-435): > 100 µM
- TGI (K-562 leukemia): > 100 µM
- TGI (OVCAR-4 ovarian): > 100 µM
- TGI (786-0 renal): > 59.2 µM
- TGI (HT29 colon): > 100 µM
- TGI (HCT-116 colon): > 50.5 µM
- TGI (SK-MEL-28 melanoma): > 100 µM
- TGI (NCI-H23 lung): > 100 µM
- TGI (UACC-257 melanoma): > 100 µM
- TGI (CCRF-CEM leukemia): > 100 µM
- TGI (OVCAR-3 ovarian): > 100 µM
- TGI (MALME-3M melanoma): > 77.6 µM
- TGI (NCI/ADR-RES ovarian): > 100 µM
- TGI (OVCAR-5 ovarian): > 100 µM
- TGI (HCT-15 colon): > 100 µM
- TGI (KM12 colon): > 84.1 µM
- TGI (ACHN renal): > 100 µM
- TGI (UO-31 renal): > 100 µM
- TGI (SW-620 colon): > 100 µM
- TGI (SNB-75 CNS): 66.5 µM
- TGI (IGROV1 ovarian): > 100 µM
- TGI (MDA-MB-231 breast): > 100 µM
- TGI (MCF7 breast): > 95.6 µM
- TGI (SF-539 CNS): 17.2 µM
- TGI (A498 renal): > 83.1 µM
- TGI (SN12C renal): > 100 µM
- TGI (HCC-2998 colon): > 100 µM
- TGI (HOP-92 NSCLC): > 100 µM
